According to PubChem BioAssay AID192 (DTP/NCI, 2004):
Several values for one entry are separate records, joined by “and”; a condition that tells them apart may be missing. Identical values can stand only once. Inconclusive results and toxic doses are left out.

Tested on: BDF1 mice, B16 melanoma ip, median survival T/C
Assay: NCI In Vivo Anticancer Drug Screen. Data for tumor model B16 Melanoma (intraperitoneal) in B6D2F1 (BDF1) mice
Details: endpoint: median survival time, higher = longer survival
Summary of the method: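 In this screen, activity was judged from survival or tumor size in treated versus vehicle-treated tumor-bearing mice, reported as T/C.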

[1] = dose: 100.0 mg/kg/injection, schedule: Q04DX003 (ip), vehicle: Klucel (hydroxypropylcellulose) (HPC)
[2] = dose: 200.0 mg/kg/injection, schedule: Q04DX003 (ip), vehicle: Klucel (hydroxypropylcellulose) (HPC)
[3] = dose: 400.0 mg/kg/injection, schedule: Q04DX003 (ip), vehicle: Klucel (hydroxypropylcellulose) (HPC)
[4] = dose: 25.0 mg/kg/injection, schedule: Q01DX009 (ip), vehicle: saline with Tween-80
[5] = dose: 50.0 mg/kg/injection, schedule: Q01DX009 (ip), vehicle: saline with Tween-80
[6] = dose: 100.0 mg/kg/injection, schedule: Q01DX009 (ip), vehicle: saline with Tween-80
[7] = dose: 200.0 mg/kg/injection, schedule: Q01DX009 (ip), vehicle: saline with Tween-80
[8] = dose: 100.0 mg/kg/injection, schedule: Q01DX009 (ip), vehicle: Klucel (hydroxypropylcellulose) (HPC)
[9] = dose: 200.0 mg/kg/injection, schedule: Q01DX009 (ip), vehicle: Klucel (hydroxypropylcellulose) (HPC)
[10] = dose: 400.0 mg/kg/injection, schedule: Q01DX009 (ip), vehicle: Klucel (hydroxypropylcellulose) (HPC)
[11] = dose: 12.5 mg/kg/injection, schedule: Q01DX009 (ip), vehicle: saline with Tween-80
[12] = dose: 12.5 mg/kg/injection, schedule: Q01DX009 (ip), vehicle: Klucel (hydroxypropylcellulose) (HPC)
[13] = dose: 25.0 mg/kg/injection, schedule: Q01DX009 (ip), vehicle: Klucel (hydroxypropylcellulose) (HPC)
[14] = dose: 1.56 mg/kg/injection, schedule: Q01DX009 (ip), vehicle: saline
[15] = dose: 6.25 mg/kg/injection, schedule: Q01DX009 (ip), vehicle: saline with Tween-80
[16] = dose: 50.0 mg/kg/injection, schedule: Q01DX009 (ip), vehicle: Klucel (hydroxypropylcellulose) (HPC)
[17] = dose: 12.5 mg/kg/injection, schedule: Q01DX009 (ip), vehicle: saline
[18] = dose: 25.0 mg/kg/injection, schedule: Q01DX009 (ip), vehicle: saline

Cc1cccc2nc(-c3ccccc3)ccc12
T/C (dose: 12.5 mg/kg/injection, schedule: Q04DX003 (ip), vehicle: saline): 107 % of control
T/C (dose: 25.0 mg/kg/injection, schedule: Q04DX003 (ip), vehicle: saline): 105 % of control

OC1CC2CC1C=C2c1ccccc1 (centres undefined)
T/C (dose: 100.0 mg/kg/injection, schedule: Q04DX003 (ip), vehicle: saline with Tween-80): 102 % of control
T/C (dose: 200.0 mg/kg/injection, schedule: Q04DX003 (ip), vehicle: saline with Tween-80): 105 % of control
T/C (dose: 400.0 mg/kg/injection, schedule: Q04DX003 (ip), vehicle: saline with Tween-80): 94 % of control

CC(O)C(=O)[O][Hg][c]1ccccc1 (centres undefined)
T/C (dose: 2.5 mg/kg/injection, schedule: Q01DX009 (ip), vehicle: saline with Tween-80): 102 % of control
T/C (dose: 5.0 mg/kg/injection, schedule: Q01DX009 (ip), vehicle: saline with Tween-80): 102 % of control

Cc1ccc(NS(=O)(=O)c2ccc([N+](=O)[O-])cc2)cc1
T/C (dose: 25.0 mg/kg/injection, schedule: Q04DX003 (ip), vehicle: Klucel (hydroxypropylcellulose) (HPC)): 115 % of control
T/C (dose: 50.0 mg/kg/injection, schedule: Q04DX003 (ip), vehicle: Klucel (hydroxypropylcellulose) (HPC)): 103 % of control
T/C [1]: 108 % of control
T/C [2]: 97 % of control
T/C [3]: 115 % of control

COc1cc(-c2ccc(Nc3ccccc3C(=O)O)c(OC)c2)ccc1N
T/C [4]: 105 % of control
T/C [5]: 104 % of control

CC(=O)Oc1cccc(C#N)c1
T/C [6]: 108 % of control
T/C [7]: 112 % of control
T/C (dose: 400.0 mg/kg/injection, schedule: Q01DX009 (ip), vehicle: saline with Tween-80): 91 % of control

S=C(SSSSC(=S)N1CCCCC1)N1CCCCC1
T/C [8]: 95 % of control
T/C [9]: 90 % of control
T/C [10]: 107 % of control

COc1cccc(C(O)c2ccncc2C)c1OC (centres undefined)
T/C (dose: 25.0 mg/kg/injection, schedule: Q01DX009 (ip), vehicle: water): 98 % of control
T/C (dose: 50.0 mg/kg/injection, schedule: Q01DX009 (ip), vehicle: water): 98 % of control
T/C (dose: 100.0 mg/kg/injection, schedule: Q01DX009 (ip), vehicle: water): 101 % of control
T/C (dose: 200.0 mg/kg/injection, schedule: Q01DX009 (ip), vehicle: water): 104 % of control

C[n+]1ccc(Nc2ccc(NC(=O)c3ccc(Nc4cc[n+](C)c5ccc([N+](=O)[O-])cc45)cc3[N+](=O)[O-])cc2)cc1
T/C [11]: 95 % of control
T/C [4]: 100 % of control

COc1cc(C=Nc2ccc(-c3nc(Cc4ccccc4)sc3C)cc2)ccc1N(CCCl)CCCl
T/C [12]: 175 % of control and 186 % of control
T/C [13]: 191 % of control

CCCCC(CC)C(O)C(C)C(C)O (centres undefined)
T/C [8]: 97 % of control
T/C [9]: 87 % of control

N#CCN1CCCN(CC#N)C1
T/C (dose: 75.0 mg/kg/injection, schedule: Q01DX009 (ip), vehicle: Klucel (hydroxypropylcellulose) (HPC)): 96 % of control

C[NH-].C[NH-].[Cl][Pt+2][Cl]
T/C (dose: 0.39 mg/kg/injection, schedule: Q01DX009 (ip), vehicle: saline): 102 % of control
T/C (dose: 0.78 mg/kg/injection, schedule: Q01DX009 (ip), vehicle: saline): 104 % of control
T/C [14]: 112 % of control
T/C (dose: 3.13 mg/kg/injection, schedule: Q01DX009 (ip), vehicle: saline): 121 % of control
T/C (dose: 8.0 mg/kg/injection, schedule: Q01DX009 (ip), vehicle: saline with Tween-80): 154 % of control

NP(Cl)(c1ccccc1)(c1ccccc1)c1ccccc1
T/C (dose: 0.1 mg/kg/injection, schedule: Q01DX009 (ip), vehicle: Klucel (hydroxypropylcellulose) (HPC)): 103 % of control
T/C (dose: 0.2 mg/kg/injection, schedule: Q01DX009 (ip), vehicle: Klucel (hydroxypropylcellulose) (HPC)): 96 % of control
T/C (dose: 0.39 mg/kg/injection, schedule: Q01DX009 (ip), vehicle: Klucel (hydroxypropylcellulose) (HPC)): 100 % of control

CCCCn1c(=S)[nH]c2ccccc2c1=O
T/C [8]: 98 % of control
T/C [9]: 96 % of control
T/C [10]: 98 % of control

COc1cc(O)c2c(c1)Cc1cc(C)cc(O)c1C2=O
T/C [15]: 93 % of control
T/C [11]: 98 % of control
T/C [4]: 98 % of control

Cc1ccc(S(=O)(=O)N2CCC(O)(c3ccccc3)CC2)cc1
T/C (dose: 20.0 mg/kg/injection, schedule: Q01DX009 (ip), vehicle: Klucel (hydroxypropylcellulose) (HPC)): 87 % of control
T/C [1]: 95 % of control
T/C [2]: 91 % of control
T/C [10]: 119 % of control
T/C [3]: 97 % of control

CCCCCCCCCC(O)CCCC (centres undefined)
T/C [13]: 108 % of control
T/C [16]: 105 % of control
T/C [8]: 86 % of control

Nc1ccccc1N
T/C [12]: 96 % of control
T/C [13]: 98 % of control
T/C (dose: 25.0 mg/kg/injection, schedule: Q02DX009 (ip), vehicle: saline with Tween-80): 106 % of control
T/C [16]: 98 % of control
T/C [8]: 102 % of control
T/C (dose: 100.0 mg/kg/injection, schedule: Q02DX009 (ip), vehicle: saline with Tween-80): 100 % of control
T/C (dose: 200.0 mg/kg/injection, schedule: Q02DX009 (ip), vehicle: saline with Tween-80): 100 % of control

c1ccc(C2CN3CCSC3=N2)cc1 (centres undefined)
T/C [14]: 103 % of control
T/C (dose: 3.12 mg/kg/injection, schedule: Q01DX009 (ip), vehicle: saline): 104 % of control
T/C (dose: 6.25 mg/kg/injection, schedule: Q01DX009 (ip), vehicle: saline): 96 % of control
T/C [17]: 94 % of control
T/C [18]: 100 % of control

Oc1c(CNCCCN2CCCC2)cc(Cl)c2cccnc12
T/C [17]: 94 % of control and 95 % of control and 106 % of control
T/C [18]: 93 % of control and 98 % of control and 102 % of control
T/C (dose: 50.0 mg/kg/injection, schedule: Q01DX009 (ip), vehicle: saline): 94 % of control and 97 % of control and 98 % of control
T/C (dose: 100.0 mg/kg/injection, schedule: Q01DX009 (ip), vehicle: saline): 103 % of control and 108 % of control and 109 % of control

COc1ccccc1NC(=O)Nc1c(C)cccc1C
T/C (dose: 100.0 mg/kg/injection, schedule: Q01DX009 (ip), vehicle: gum acacia): 101 % of control
T/C (dose: 200.0 mg/kg/injection, schedule: Q01DX009 (ip), vehicle: gum acacia): 102 % of control
T/C (dose: 400.0 mg/kg/injection, schedule: Q01DX009 (ip), vehicle: gum acacia): 90 % of control

CC(C)(C)c1cc([N+](=O)[O-])cc([N+](=O)[O-])c1O
T/C (dose: 1.56 mg/kg/injection, schedule: Q01DX009 (ip), vehicle: saline with Tween-80): 99 % of control
T/C (dose: 3.13 mg/kg/injection, schedule: Q01DX009 (ip), vehicle: saline with Tween-80): 96 % of control
T/C [15]: 93 % of control
T/C [11]: 89 % of control

Cc1cc(NCCN(C(C)C)C(C)C)nc(/N=C(\N)Nc2ccc(Cl)c(C(F)(F)F)c2)n1
T/C (dose: 2.5 mg/kg/injection, schedule: Q04DX003 (ip), vehicle: Klucel (hydroxypropylcellulose) (HPC)): 101 % of control
T/C (dose: 5.0 mg/kg/injection, schedule: Q01DX009 (ip), vehicle: Klucel (hydroxypropylcellulose) (HPC)): 92 % of control
T/C (dose: 5.0 mg/kg/injection, schedule: Q04DX003 (ip), vehicle: Klucel (hydroxypropylcellulose) (HPC)): 93 % of control
T/C (dose: 10.0 mg/kg/injection, schedule: Q01DX009 (ip), vehicle: Klucel (hydroxypropylcellulose) (HPC)): 91 % of control
T/C (dose: 10.0 mg/kg/injection, schedule: Q04DX003 (ip), vehicle: Klucel (hydroxypropylcellulose) (HPC)): 102 % of control
T/C (dose: 20.0 mg/kg/injection, schedule: Q04DX003 (ip), vehicle: Klucel (hydroxypropylcellulose) (HPC)): 111 % of control

COc1cc2cc[n+](C)c(Cc3ccccc3)c2cc1OC
T/C (dose: 3.12 mg/kg/injection, schedule: Q01DX009 (ip), vehicle: Klucel (hydroxypropylcellulose) (HPC)): 102 % of control
T/C (dose: 6.25 mg/kg/injection, schedule: Q01DX009 (ip), vehicle: Klucel (hydroxypropylcellulose) (HPC)): 102 % of control
T/C [12]: 102 % of control
T/C [13]: 104 % of control

ClC1CCC[N-]C1.ClC1CCC[N-]C1.O=C(O)CC(=O)O.[Pt+2] (centres undefined)
T/C [11]: 96 % of control
T/C [4]: 95 % of control
T/C [5]: 94 % of control
T/C [6]: 93 % of control
T/C [7]: 89 % of control

O=C(COc1ccc(Cl)cc1)Nc1ccccc1C(F)(F)F
T/C [1]: 90 % of control
T/C [2]: 92 % of control
T/C [3]: 90 % of control
